Results published in the supplement of paper PMC10307832.

What was measured:
Experiment in all cases: relative viability (nuclei count vs DMSO), 5 days (fraction); higher = more cells survive
VX-11e = compound: CC1=CN=C(N=C1C2=CNC(=C2)C(=O)N[C@H](CO)C3=CC(=CC=C3)Cl)NC4=C(C=C(C=C4)F)Cl [VX-11e]
Summary of the method: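 Lung cancer cell lines were seeded into 1536-well plates, kept overnight at 37 °C and pinned with five library-drug doses (not always all listed) spaced by √10. After 5 days, nuclei were Hoechst-stained, imaged at 4× and counted with MetaXpress. Viability is treated-well nuclei over vehicle-well nuclei, taken as a median across plates. Plates needed control CV below 25% and at least one doubling.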

VX-11e + Trametinib = compound: CC1=CN=C(N=C1C2=CNC(=C2)C(=O)N[C@H](CO)C3=CC(=CC=C3)Cl)NC4=C(C=C(C=C4)F)Cl [VX-11e] + CC(=O)Nc1cccc(-n2c(=O)n(C3CC3)c(=O)c3c(Nc4ccc(I)cc4F)n(C)c(=O)c(C)c32)c1 [Trametinib] (partner 0.02 µM)
Summary of the method: (§1)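 Relative viability divides the nuclei count in treated wells by that in vehicle wells. Lung cancer cell lines were seeded in 1536-well plates, dosed by pin tool the next day, and fixed and stained after 5 days in one step with final 0.05% Triton X-100, 1% formaldehyde and 1 ug/ml Hoechst. Dosing was a single drug or a fixed anchor-drug dose plus five library-drug doses (not always all listed) in √10 steps, and values are medians of duplicate plates imaged at 4×.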

VX-11e + Tozasertib = compound: CC1=CN=C(N=C1C2=CNC(=C2)C(=O)N[C@H](CO)C3=CC(=CC=C3)Cl)NC4=C(C=C(C=C4)F)Cl [VX-11e] + Cc1cc(Nc2cc(N3CCN(C)CC3)nc(Sc3ccc(NC(=O)C4CC4)cc3)n2)n[nH]1 [Tozasertib] (partner 0.1 µM)
Summary of the method: as §1

VX-11e + AZD7762 = compound: CC1=CN=C(N=C1C2=CNC(=C2)C(=O)N[C@H](CO)C3=CC(=CC=C3)Cl)NC4=C(C=C(C=C4)F)Cl [VX-11e] + NC(=O)Nc1cc(-c2cccc(F)c2)sc1C(=O)N[C@H]1CCCNC1 [AZD7762] (partner 0.2 µM)
Summary of the method: as §1

Row | Cell Line | relative viability (VX-11e; 0.04 µM) | relative viability (VX-11e; 0.1265 µM) | relative viability (VX-11e; 0.4 µM) | relative viability (VX-11e; 1.265 µM) | relative viability (VX-11e; 4 µM) | relative viability (VX-11e + Trametinib; first compound 0.04 µM) | relative viability (VX-11e + Trametinib; first compound 0.1265 µM) | relative viability (VX-11e + Trametinib; first compound 0.4 µM) | relative viability (VX-11e + Trametinib; first compound 1.265 µM) | relative viability (VX-11e + Trametinib; first compound 4 µM) | relative viability (VX-11e + Tozasertib; first compound 0.04 µM) | relative viability (VX-11e + Tozasertib; first compound 0.1265 µM) | relative viability (VX-11e + Tozasertib; first compound 0.4 µM) | relative viability (VX-11e + Tozasertib; first compound 1.265 µM) | relative viability (VX-11e + Tozasertib; first compound 4 µM) | relative viability (VX-11e + AZD7762; first compound 0.04 µM) | relative viability (VX-11e + AZD7762; first compound 0.1265 µM) | relative viability (VX-11e + AZD7762; first compound 0.4 µM) | relative viability (VX-11e + AZD7762; first compound 1.265 µM) | relative viability (VX-11e + AZD7762; first compound 4 µM)
1 | NCI-H2085 | 1.04 | 0.949 | 0.923 | 0.84 | 0.696 | 0.495 | 0.516 | 0.524 | 0.482 | 0.497 | 0.897 | 0.724 | 0.659 | 0.644 | 0.413 | 0.853 | 0.975 | 0.829 | 0.887 | 0.642
2 | NCI-H2347 | 1.01 | 1.05 | 0.853 | 0.752 | 0.469 | 0.282 | 0.261 | 0.297 | 0.241 | 0.267 | 0.646 | 0.599 | 0.508 | 0.449 | 0.276 | 0.834 | 0.722 | 0.551 | 0.501 | 0.375
3 | HCC-78 | 0.934 | 1.02 | 1.01 | 0.68 | 0.667 | 0.827 | 0.651 | 0.632 | 0.559 | 0.387 |  | 0.538 | 0.386 | 0.324 | 0.487 | 0.58 | 0.814 | 0.725 | 0.371 | 0.527
4 | NCI-H2342 | 0.666 | 1.03 | 0.923 | 0.992 | 0.9 |  | 0.741 | 0.765 | 0.858 | 0.823 | 0.422 | 0.503 | 0.498 | 0.406 | 0.416 |  | 0.462 | 0.604 | 0.508 | 0.466
5 | LK-2 | 0.908 | 0.983 | 0.821 | 0.588 | 0.705 | 0.831 | 0.668 | 0.806 | 0.234 | 0.312 | 0.148 | 0.182 | 0.22 | 0.185 | 0.159 | 0.299 | 0.388 | 0.326 | 0.316 | 0.294
6 | NCI-H1793 |  | 0.8 |  | 0.752 | 0.301 |  | 0.316 |  | 0.344 | 0.27 | 0.345 | 0.293 |  | 0.228 | 0.133 |  | 0.361 |  | 0.516 | 0.191
7 | NCI-H1437 | 0.98 | 0.906 | 0.924 | 0.746 | 0.621 | 0.539 | 0.472 | 0.574 | 0.358 | 0.305 | 0.421 | 0.379 | 0.345 | 0.335 | 0.159 | 1.11 | 1.09 | 0.867 | 0.972 | 0.741
8 | HOP-62 | 1.04 | 0.986 | 0.921 | 0.595 | 0.567 | 0.381 | 0.428 | 0.296 | 0.179 | 0.151 | 0.344 | 0.368 | 0.402 | 0.321 | 0.24 | 0.486 | 0.644 | 0.234 | 0.315 | 0.166
9 | HCC-15 | 1.05 | 1.01 |  | 0.669 | 0.285 | 0.354 | 0.345 |  | 0.297 | 0.246 | 0.428 | 0.35 | 0.306 | 0.153 | 0.172 | 1.41 | 1.18 |  | 1.11 | 0.769
10 | HCC-44 | 1 | 0.941 | 0.907 | 0.915 | 0.733 | 1.05 | 1.07 | 0.92 | 0.888 | 0.607 | 0.975 | 0.863 | 0.182 | 0.396 | 0.549 | 1.03 | 0.904 | 1.01 | 1.07 | 1.13
11 | NCI-H322M | 0.814 | 0.517 | 0.728 | 0.727 | 0.605 | 0.468 | 0.484 | 0.426 | 0.586 | 0.46 | 0.444 | 0.444 | 0.352 | 0.453 | 0.343 | 0.469 | 0.726 | 0.506 | 0.514 | 0.448
12 | CAL-12T | 0.955 | 0.942 | 0.964 | 0.715 | 0.376 | 0.235 | 0.243 | 0.285 | 0.229 | 0.228 | 0.384 | 0.25 | 0.26 | 0.247 | 0.155 | 0.639 | 0.641 | 0.575 | 0.533 | 0.544
13 | NCI-H522 | 0.796 | 0.876 | 0.738 | 0.614 | 0.666 | 0.684 | 0.773 | 0.618 | 0.645 | 0.589 | 0.532 | 0.56 | 0.553 | 0.467 | 0.503 | 0.812 | 0.969 | 0.82 | 0.671 | 0.671
14 | A-427 | 0.862 | 0.854 | 0.927 | 0.933 | 0.419 | 0.73 | 0.657 | 0.708 | 0.694 | 0.379 | 0.181 | 0.18 | 0.132 | 0.143 | 0.16 | 0.743 | 0.641 | 0.633 | 0.566 | 0.438
15 | LOU-NH91 | 0.855 | 0.924 |  | 0.733 | 0.797 | 0.813 | 0.73 |  | 0.768 | 0.691 | 0.807 | 0.647 | 0.384 | 0.593 | 0.618 | 0.746 | 0.805 |  | 0.8 | 0.725
16 | HCC-366 | 0.997 | 0.936 |  | 1.03 | 0.676 | 0.353 | 0.344 |  | 0.289 | 0.187 | 0.12 | 0.0759 |  | 0.0517 | 0.0473 | 0.429 | 0.235 |  | 0.21 | 0.16
17 | NCI-H838 | 0.965 | 0.913 | 0.842 | 0.852 | 0.736 | 0.457 | 0.505 | 0.513 | 0.484 | 0.455 | 0.233 | 0.279 | 0.263 | 0.213 | 0.193 | 0.784 | 0.962 | 0.728 | 0.977 | 0.834
18 | NCI-H650 | 0.781 | 0.925 | 1.04 | 0.872 | 0.974 | 1.04 | 0.958 | 0.994 | 0.64 | 0.381 | 0.828 | 0.648 | 0.683 | 0.509 | 0.511 | 1.08 | 0.935 | 0.964 | 0.994 | 0.553
19 | NCI-H1666 | 1.02 | 0.978 | 0.764 | 0.805 | 0.679 | 0.866 | 0.77 |  | 0.848 | 0.726 | 0.561 | 0.584 | 0.49 | 0.52 | 0.388 | 0.803 | 0.832 | 0.715 | 0.732 | 0.699
20 | NCI-H1915 | 0.992 | 0.784 | 0.784 | 0.734 | 0.489 | 0.305 | 0.284 | 0.233 | 0.204 | 0.114 | 0.42 | 0.392 | 0.401 | 0.366 | 0.295 | 0.719 | 0.719 | 0.596 | 0.791 | 0.554
21 | NCI-H2087 | 1.05 | 0.989 |  | 0.566 | 0.293 | 0.255 | 0.182 |  | 0.181 | 0.182 | 0.28 | 0.208 |  | 0.203 | 0.167 | 1.51 | 1.37 |  | 1.24 | 0.583
22 | NCI-H1755 | 1.03 | 0.978 | 0.978 | 0.992 | 0.817 | 0.751 | 0.755 | 0.78 | 0.778 | 0.612 | 0.59 | 0.487 | 0.513 | 0.527 | 0.402 | 0.434 | 0.333 | 0.341 | 0.513 | 0.359
23 | NCI-H460 | 1.03 | 0.972 | 0.858 | 0.886 | 0.342 | 0.134 | 0.161 | 0.0116 | 0.0437 | 0.0311 | 0.678 | 0.268 | 0.0898 | 0.031 | 0.0316 | 0.561 | 0.54 |  | 0.646 | 0.378
24 | HCC-827 | 1.09 | 0.988 | 1.07 | 1.14 | 0.958 | 0.555 | 0.568 | 0.454 | 0.549 | 0.274 | 0.396 | 0.401 | 0.421 | 0.401 | 0.347 | 0.162 | 0.222 | 0.212 | 0.349 | 0.21
